For 13 compounds, IC50 and Thrombin selectivity results are on record in patent US7001887B2, “Peptide derivatives” (priority 2001, dated 2006).

The term IC50 denotes the concentration that gives 50% inhibition.

Where two headings read alike, the source gives them in different places.

One assay addresses human factor VIIa (Homo sapiens, UniProt P08709). In words: biochemical. As for the experimental part: 1. Assay for FVIIa-inhibiting Activity
A 10 vol % DMSO solution of a test compound (20 μL) was mixed with 40 μL Thromborel®S (50 mg/mL, Dade Behring, GTS-200A), 20 μL Spectrozyme®fVIIa (5 mmol/L, American Diagnostica Inc., #217L), 20 μL Tris buffer (500 mmol/L Tris/HCl, pH 7.5, 1500 mmol/L NaCl, 50 mmol/L CaCl2) and 80 μL distilled water, followed by stirring. […] The initial reaction velocity was set to 100% in the case of adding 10 vol % DMSO alone, instead of a test compound. […] This concentration was defined as an IC50 value.

The next assay deals with T1, human thrombin (Homo sapiens, UniProt P00734).
T1 construct: addition of 20 μ2L human thrombin (5 U/mL, SIGMA, T 1063); purchased SIGMA T 1063
In words: Assay for thrombin-inhibiting activity (chromogenic substrate FVR-pNa). The following applies: for Thrombin selectivity: ratio IC50 Thrombin / IC50 Factor VIIa. Format: biochemical.

Where [1] appears, read: 50% inhibition of initial reaction velocity, room temperature, absorbance at 405 nm, read-out: IC50 Thrombin.

Chain of human factor VIIa (P08709 213-466 limits assumed): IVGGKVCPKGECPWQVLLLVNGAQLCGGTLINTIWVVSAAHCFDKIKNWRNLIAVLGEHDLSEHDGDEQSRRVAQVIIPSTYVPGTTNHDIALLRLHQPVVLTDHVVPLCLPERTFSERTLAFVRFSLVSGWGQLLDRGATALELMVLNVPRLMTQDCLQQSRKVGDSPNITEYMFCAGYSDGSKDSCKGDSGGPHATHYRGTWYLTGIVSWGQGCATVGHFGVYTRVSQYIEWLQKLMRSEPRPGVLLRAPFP
Chain of human factor VIIa (P08709 61-212 limits assumed): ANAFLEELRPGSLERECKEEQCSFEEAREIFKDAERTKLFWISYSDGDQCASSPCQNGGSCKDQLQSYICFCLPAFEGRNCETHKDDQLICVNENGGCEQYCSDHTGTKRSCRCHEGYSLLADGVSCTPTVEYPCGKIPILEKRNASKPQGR
Chain of human factor VIIa (P13726 33-295 partner): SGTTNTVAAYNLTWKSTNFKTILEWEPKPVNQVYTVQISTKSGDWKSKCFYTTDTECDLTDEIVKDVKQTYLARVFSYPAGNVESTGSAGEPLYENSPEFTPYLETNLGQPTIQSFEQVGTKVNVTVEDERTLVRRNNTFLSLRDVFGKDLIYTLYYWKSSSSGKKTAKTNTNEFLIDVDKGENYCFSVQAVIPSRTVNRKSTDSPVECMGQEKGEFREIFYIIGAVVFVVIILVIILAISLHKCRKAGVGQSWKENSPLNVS

As to `CCS(=O)(=O)N[C@H](Cc1c[nH]c2ccccc12)C(=O)N[C@@H](CCC(N)=O)C(=O)NCc1ccc(C(=N)N)cc1` [Example 5, N-(Ethylsulfonyl)-D-tryptophyl-N^1-(4-amidinobenzyl)-L-glutamide], the results for the IC50 against human factor VIIa and at human thrombin (setting [1]) were 62 nM and 5880 nM, respectively. At human thrombin, the Thrombin selectivity came out at 95.

Regarding `N=C(N)c1ccc(CNC(=O)[C@H](CCC(N)=O)NC(=O)[C@@H](Cc2c[nH]c3ccccc23)NS(=O)(=O)Cc2cccc(C(=O)O)c2)cc1` [Example 7], the values for the concentration for half-maximal inhibition (IC50) against human factor VIIa and on human thrombin (setting [1]) were 37 nM and 17900 nM, respectively. Besides, the Thrombin selectivity on human thrombin was found to be 483.

With `CCS(=O)(=O)N[C@H](Cc1c[nH]c2ccc(OCc3cccc(C(=O)O)c3)cc12)C(=O)N[C@@H](CCC(N)=O)C(=O)NCc1ccc(C(=N)N)cc1` [Example 22, 5-[(3-Carboxybenzyl)oxy]-N-(ethylsulfonyl)-D-tryptophyl-N^1-{4-[amino(imino)methyl]benzyl}-L-glutamide], the half-maximal inhibitory concentration (IC50) was 39 nM against human factor VIIa and 17500 nM at human thrombin (setting [1]).

Regarding `CCS(=O)(=O)N[C@H](Cc1ccc(-c2ccccc2)cc1)C(=O)N[C@@H](CCC(N)=O)C(=O)NCc1ccc(C(=N)N)cc1` [Example 65], the IC50 on human thrombin (setting [1]) came out at 9420 nM.

With `N=C(N)c1ccc(CNC(=O)[C@H](CCC(N)=O)NC(=O)[C@H](N)Cc2ccc(-c3ccccc3)cc2)cc1` [Example 66], the 50% inhibitory concentration (IC50) was 2940 nM against human factor VIIa and 59100 nM on human thrombin (setting [1]). On human thrombin, the Thrombin selectivity is recorded as 20.

Take `CCS(=O)(=O)N[C@H](Cc1ccc(-c2ccccc2)cc1)C(=O)N[C@@H](CCSC)C(=O)NCc1ccc(C(=N)N)cc1` [Example 67]: the IC50 against human factor VIIa came to 341 nM. At human thrombin, the midpoint of inhibition, the IC50, lay at 2280 nM and the Thrombin selectivity was 1.

As for `CCS(=O)(=O)N[C@H](Cc1ccc(OC)cc1)C(=O)N[C@@H](CCC(N)=O)C(=O)NCc1ccc(C(=N)N)cc1` [Example 73], the figures for the half-inhibitory concentration (IC50) on human factor VIIa and on human thrombin (setting [1]) were 81 nM and 397 nM, respectively. Also, the Thrombin selectivity at human thrombin amounted to 5.

Consider `CCS(=O)(=O)N[C@H](Cc1ccc(C(=O)c2ccccc2)cc1)C(=O)N[C@@H](CCC(N)=O)C(=O)NCc1ccc(C(=N)N)cc1` [Example 81], for which the IC50 at human factor VIIa worked out at 177 nM; on human thrombin (setting [1]), 5690 nM.

`CCS(=O)(=O)N[C@H](Cc1c[nH]c2ccc(C)cc12)C(=O)N[C@@H](CCC(N)=O)C(=O)NCc1ccc(C(=N)N)cc1` [Example 82]: the half-maximal inhibitory concentration (IC50) against human factor VIIa came to 131 nM; at human thrombin (setting [1]), 12500 nM.

As for `CCCOc1ccc2[nH]cc(C[C@@H](NS(=O)(=O)CC)C(=O)N[C@@H](CCC(N)=O)C(=O)NCc3ccc(C(=N)N)cc3)c2c1` [Example 83], the IC50 on human factor VIIa is 55 nM; at human thrombin (setting [1]), 14400 nM.

In the case of `N=C(N)c1ccc(CNC(=O)[C@H](CCC(N)=O)NC(=O)[C@@H](Cc2c[nH]c3ccccc23)NS(=O)(=O)CC(=O)O)cc1` [Example 146], the results for the half-inhibitory concentration (IC50) on human factor VIIa and on human thrombin (setting [1]) were 153 nM and 80200 nM, respectively. Moreover, at human thrombin, the Thrombin selectivity is reported as 524.

Turning to `CCS(=O)(=O)N[C@H](Cc1c[nH]c2ccc(OC)cc12)C(=O)N[C@@H](CCC(N)=O)C(=O)NCc1ccc(C(=N)N)cc1` [Example 148], the IC50 was 65 nM at human factor VIIa and 8330 nM at human thrombin (setting [1]).

As for `CCS(=O)(=O)N[C@H](Cc1c[nH]c2ccc(OCc3ccccc3)cc12)C(=O)N[C@@H](CCC(N)=O)C(=O)NCc1ccc(C(=N)N)cc1` [Example 170], the 50% inhibitory concentration (IC50) was found to be 37 nM on human factor VIIa and 9420 nM at human thrombin (setting [1]).
